This is an account of results in patent US20120269913A1, “CRUDE CAFFEINE COMPLEX, IMPROVED FOOD PRODUCTS USING THE CRUDE CAFFEINE COMPLEX, AND METHODS OF USE THEREOF” (priority 2009, published 2012).

Like-named read-outs stand apart in the source and are kept apart here.

Assay [1] has as its system human skeletal muscle cells. Description: Glucose uptake (3H-2-deoxyglucose) in human skeletal muscle cells. Type of assay: cell-based. The conditions noted are these: about 0.01 mg/mL, p<0.05. On the procedure: (§1) The effect of the crude caffeine extract of Example 1 on glucose uptake in both human adipocytes (fat) and skeletal muscle cells (SMC) was tested (Zen Bio Research, Triangle Park, N.C.).
(§2) Data were analyzed by one-way ANOVA followed by Tukey's post hoc test for multiple comparisons. In FIG. 6, results are expressed as mean±SD. The asterisk * denotes P<0.05 compared with human skeletal muscle cells; the carrot top A denotes P<0.05 compared with untreated human adipocytes.
(§3) Glucose uptake. The in vitro effects of crude caffeine on glucose uptake were assessed with human adipocytes and skeletal muscle cells (Zen-Bio, Research Triangle Park, N.C.). Briefly, primary human subcutaneous adipocytes or primary human myoblasts were differentiated in 96-well microplates. […] All samples, including the positive and negative controls, were tested in triplicate. After a 2-h incubation at 37° C. and 5% CO2, the cells were washed with PBS and lysed. The cell lysate was mixed with scintillation fluid and radioactivity of each well was measured as counts per minute (CPM).

The nature of assay [2]: Oxygen radical absorbance capacity, hydrophilic fraction (ORAChydro). Particulars: crude caffeine complex of Example 1 vs pure caffeine.
Experimental: Oxygen radical absorbance capacity. To determine antioxidant values of the hydrophilic fraction (ORAChydro), 5 g crude caffeine was extracted with 20 mL acetone/water (50:50 v/v) on an orbital shaker at room temperature for 1 h. The mixtures were centrifuged at 1972×g in a Rotanta 460R centrifuge (GMI, Ramsey, Minn.). […] The excitation wavelength was set at 485 (±20) nm and the emission wavelength set at 530 (±25) nm. To determine antioxidant values of the lipophilic fraction (ORAClipo), 5 g crude caffeine was extracted twice with 10 mL hexane/dichloromethane (50:50 v/v).
The next assay has as its target T1, COX-2 enzyme (Homo sapiens, UniProt P35354).
T1 sequence (P35354 18-604): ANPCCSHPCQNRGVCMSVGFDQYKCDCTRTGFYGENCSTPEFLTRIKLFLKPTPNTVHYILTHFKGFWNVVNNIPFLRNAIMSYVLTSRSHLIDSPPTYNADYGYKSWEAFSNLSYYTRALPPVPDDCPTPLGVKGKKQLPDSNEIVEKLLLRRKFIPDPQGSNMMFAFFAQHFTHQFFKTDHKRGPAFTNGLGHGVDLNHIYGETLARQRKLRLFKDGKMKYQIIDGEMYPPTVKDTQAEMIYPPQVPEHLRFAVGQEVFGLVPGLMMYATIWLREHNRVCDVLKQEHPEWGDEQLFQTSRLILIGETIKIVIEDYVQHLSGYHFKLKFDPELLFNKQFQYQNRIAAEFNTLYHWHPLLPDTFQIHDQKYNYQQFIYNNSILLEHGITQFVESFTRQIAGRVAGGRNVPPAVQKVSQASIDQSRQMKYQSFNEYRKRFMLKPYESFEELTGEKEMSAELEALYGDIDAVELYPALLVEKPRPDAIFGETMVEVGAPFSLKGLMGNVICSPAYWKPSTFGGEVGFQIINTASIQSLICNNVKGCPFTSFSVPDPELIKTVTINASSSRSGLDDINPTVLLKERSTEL
The assay can be described thus: COX-2 inhibition (oxygen consumption). The class given is biochemical. As for the experimental part:
As discussed above, the ability to inhibit the COX-2 enzyme is understood as providing anti-inflammatory activities. […] IC50 indicates the effective dose needed to achieve about 50 percent inhibition of the COX-2 enzyme.
COX-2 inhibition. Oxygen consumption was measured in the reaction chamber of an Oxytherm (Hansatech Instrumental, Norfolk, England) at 37° C. The reaction mixture consisting of 0.5 mL Tris buffer (0.1 M, pH 8.0), 5 μL heme [100 μM in dimethyl sulfoxide (DMSO)], and 10 μL of COX-2 enzyme was incubated for 1 min. Five microliters of each sample (in DMSO or ethanol) was added and the mixture was incubated for an additional 1 min. The assay was initiated by adding 5 μL arachidonic acid, and the oxygen concentration was monitored. The initial oxygen consumption rate was obtained from the kinetic curve. COX-2 inhibition was expressed as the inhibitor concentration at which the initial oxygen consumption rate decreased by 50% (IC50).

The next assay has as its system human adipocytes. The assay can be described thus: Glucose uptake (3H-2-deoxyglucose) in human adipocytes. Type of assay: cell-based. Particulars: about 0.01 mg/mL, p<0.05. As for the experimental part: as §1, §2, §3
Assay [3] in a line: ORAC assay adapted for the linoleate microemulsion system, combination with α-tocopherol. Particulars: in combination with α-tocopherol; 100% = additive, >100% = synergistic.
Text: Using an ORAC assay adapted for the linoleate microemulsion system (Sim, W. L. S. et al., Journal of Agricultural and Food Chemistry 57: 3409-3414 (2009)), we determined the antioxidant activity of α-tocopherol (a form of vitamin E) combined with crude caffeine, ascorbic acid, and chlorogenic acid. Data were expressed as relative ORAC: a relative ORAC of 100% means that the antioxidant activity of the mixture equaled the sum of each component's antioxidant activity (additive effect), whereas a relative ORAC greater than 100% means that the antioxidant activity of the mixture was greater than the sum of each component's antioxidant activity (synergistic effect).
In a 15-mL test tube, methyl linoleate (1.2 g), Tween-20 (2.9 g), n-butanol (1.5 g), and potassium phosphate buffer (4.4 g) were vortexed until the resulting solution was clear. […] A control well containing 200 μL of microemulsion and 40 μL of phosphate buffer was used to normalize the fluorescence reading. The reaction kinetics were monitored at 37° C. for 2 h, with readings every 2 min, by a Synergy HT microplate fluorescent reader (Biotek Instruments Inc.). The microplate reader was fitted with an excitation filter at 485 nm, an emission filter of 590 nm, and an oxygen sensor biosystem, and the plate was shaken for 20 s at low intensity before each reading to ensure sufficient mixing. […]

Turning to `Cn1c(=O)c2c(ncn2C)n(C)c1=O` [pure caffeine, 1,3,7-trimethylxanthine], the “increase in glucose uptake as compared to a control” value (in assay [1]; with human adipocytes) was “no such effect” in each case. The same compound gave an ORAChydro in assay [2] of 5 μmol TE/g. In addition, the results for the “COX-2 inhibitory activity (in words)” value on COX-2 enzyme and on COX-2 enzyme (listed as Pure caffeine) were “no such inhibitory activity” and “did not inhibit COX-2 activity”, respectively.

With `O=C1O[C@H]([C@@H](O)CO)C(O)=C1O` [ascorbic acid], in assay [3], the “relative ORAC” value is reported as 100%.

On to `O=C(/C=C/c1ccc(O)c(O)c1)O[C@@H]1C[C@](O)(C(=O)O)C[C@@H](O)[C@H]1O` [chlorogenic acid], for which, in assay [3], the “relative ORAC” value came to 168%.
